# Assay results as given in patent US20250000069A1, “ANTHELMINTIC LABORATORY ANIMAL MODEL FOR HEARTWORM” (priority 2019, published 2025).
# Where “and” joins values, the source holds several entries; their conditions need not be identical. Equal values may be shown once.
# Legend:
# [1] = test system: D. immitis (UGA susceptible strain); experiment: Dog (oral) heartworm model, compiled dose correlation data; format: in vivo
# [2] = test system: D. immitis (Michigan strain); experiment: Efficacy of compounds in the D. immitis immunosuppressed rat model (third study, subcutaneous dosing); format: in vivo
# [3] = test system: D. immitis (Michigan susceptible strain); experiment: Rat (SQ) heartworm model, compiled dose correlation data; format: in vivo
# [4] = test system: D. immitis ZoeMI-01 (ZM1) strain; experiment: Oral moxidectin in immunosuppressed rats infected with ZoeMI-01 strain; format: in vivo, rat; settings: for Mean worm counts: geometric mean
# D. immitis JYD-34 strain = experiment: Oral moxidectin in immunosuppressed rats infected with JYD-34 strain; format: in vivo, rat; settings: for Mean worm counts: geometric mean
# [5] = rat, in vivo
# [6] = rat, SC 1.00 mg/kg day 30 post-inoculation, necropsy day 112-114
# [7] = rat, SC 5.00 mg/kg day 30 post-inoculation, necropsy day 112-114
# [8] = SQ 1 μg/kg, dosed month 1 post-inoculation
# [9] = oral 3 μg/kg day 28, necropsy day 120
# [10] = oral 3 μg/kg days 28, 56, 84, necropsy day 120
# [11] = oral 12 μg/kg day 28, necropsy day 120
# [12] = oral 24 μg/kg day 28, necropsy day 120
# [13] = n = 4, oral 3 μg/kg day 28, necropsy day 120
# [14] = n = 4, oral 3 μg/kg days 28, 56, 84, necropsy day 120
# [15] = n = 4, oral 24 μg/kg day 28, necropsy day 120
# [16] = rat, SC 0.001 mg/kg day 30 post-inoculation, necropsy day 112-114
# [17] = rat, SC 0.003 mg/kg day 30 post-inoculation, necropsy day 112-114
smiles,measurement,setting,value
"CC(C)C[C@H]1C(=O)O[C@H](Cc2ccc(N3CCOCC3)cc2)C(=O)N(C)[C@@H](CC(C)C)C(=O)O[C@H](C)C(=O)N(C)[C@@H](CC(C)C)C(=O)O[C@H](Cc2ccc(N3CCOCC3)cc2)C(=O)N(C)[C@@H](CC(C)C)C(=O)O[C@H](C)C(=O)N1C [EMO, emodepside]",% Efficacy,"[1]; oral 1 μg/kg, dosed month 1 post-inoculation",58%
same,% Efficacy,"[1]; oral 3 μg/kg, dosed month 1 post-inoculation",88%
same,% Efficacy,"[1]; oral 5 μg/kg, dosed month 1 post-inoculation",97%
same,% Efficacy,"[1]; oral 10 μg/kg, dosed month 1 post-inoculation",97%
same,Mean worm count (range),"[2]; arithmetic mean, rat, SC 1.00 mg/kg day 30 post-inoculation, necropsy day 112-114",1.8
same,Mean worm count (range),"[2]; arithmetic mean, rat, SC 5.00 mg/kg day 30 post-inoculation, necropsy day 112-114",0
same,prevention of heartworm,"[2]; rat model, dose not stated",100%
same,# rats with infection (n = 6),[2]; [6],3
same,% Efficacy,[2]; [6],75.6%
same,# rats with infection (n = 6),[2]; [7],0
same,% Efficacy,[2]; [7],100%
same,# of Ag+,"[2]; rat, in vivo, sc, 1 mg/kg",1
same,# of Ag+,"[2]; rat, in vivo, sc, 5 mg/kg",1
same,% Efficacy,[3]; [8],76%
same,% Efficacy,"[3]; SQ 5 μg/kg, dosed month 1 post-inoculation",100%
"CC[C@H](C)[C@H]1O[C@]2(CC[C@@H]1C)C[C@@H]1C[C@@H](C/C=C(\C)[C@@H](O[C@H]3C[C@H](OC)[C@@H](O[C@H]4C[C@H](OC)[C@@H](O)[C@H](C)O4)[C@H](C)O3)[C@@H](C)/C=C/C=C3\CO[C@@H]4[C@H](O)C(C)=C[C@@H](C(=O)O1)[C@]34O)O2 [IVM, ivermectin]",% Efficacy,"[1]; in vivo, po",53% and 83-97% and 98% and 100% and 64%
same,efficacy,"[2]; rat, in vivo",96.5%
same,# of Ag+,"[2]; rat, in vivo, sc, 0.001 mg/kg",2
same,# rats with infection (n = 6),"[2]; rat, in vivo, sc, 0.001 mg/kg",5
same,% Efficacy,"[2]; rat, in vivo, sc, 0.001 mg/kg",89.3%
same,Mean worm count (range),"[2]; rat, in vivo, sc, 0.001 mg/kg",0.8
same,# of Ag+,"[2]; rat, in vivo, sc, 0.003 mg/kg",2
same,# rats with infection (n = 6),"[2]; rat, in vivo, sc, 0.003 mg/kg",1
same,% Efficacy,"[2]; rat, in vivo, sc, 0.003 mg/kg",96.5%
same,Mean worm count (range),"[2]; rat, in vivo, sc, 0.003 mg/kg",0.3
same,% Efficacy,[3]; in vivo,89% and 97-100% and 100%
"CO/N=C1\C[C@]2(C[C@@H]3C[C@@H](C/C=C(\C)C[C@@H](C)/C=C/C=C4\CO[C@@H]5[C@H](O)C(C)=C[C@@H](C(=O)O3)[C@]45O)O2)O[C@H](/C(C)=C/C(C)C)[C@H]1C [MOX, moxidectin]",% Efficacy,"[1]; oral 0.5 μg/kg, dosed month 2 post-inoculation",100%
same,% Efficacy,"[1]; oral 0.625 μg/kg, dosed month 2 post-inoculation",100%
same,% Efficacy,"[1]; oral 1.25 μg/kg, dosed months 1, 2 post-inoculation",100%
same,Mean worm counts,[4]; [9],1.1
same,Mean worm counts,[4]; [10],0
same,Mean worm counts,[4]; [11],0
same,Mean worm counts,[4]; [12],0
same,Number of rats infected,[4]; [13],3
same,Number of rats infected,[4]; [14],0
same,Number of rats infected,"[4]; n = 4, oral 12 μg/kg day 28, necropsy day 120",0
same,Number of rats infected,[4]; [15],0
same,% Efficacy,[4]; [9],81%
same,% Efficacy,[4]; [10],100%
same,% Efficacy,[4]; [11],100%
same,% Efficacy,[4]; [12],100%
same,Mean worm count (range),"[2]; arithmetic mean, rat, SC 0.001 mg/kg day 30 post-inoculation, necropsy day 112-114",0.67
same,Mean worm count (range),"[2]; arithmetic mean, rat, SC 0.003 mg/kg day 30 post-inoculation, necropsy day 112-114",0
same,efficacy,"[2]; rat model, at their use-dose",100%
same,# rats with infection (n = 6),[2]; [16],4
same,% Efficacy,[2]; [16],91.7%
same,# rats with infection (n = 6),[2]; [17],0
same,% Efficacy,[2]; [17],100%
same,# of Ag+,"[2]; rat, in vivo, sc, 0.001 mg/kg",1
same,# of Ag+,"[2]; rat, in vivo, sc, 0.003 mg/kg",0
same,% Efficacy,[3]; [8],92%
same,% Efficacy,"[3]; SQ 3 μg/kg, dosed month 1 post-inoculation",100%
same,Mean worm counts,D. immitis JYD-34 strain; [9],6.0
same,Mean worm counts,D. immitis JYD-34 strain; [10],2.4
same,Mean worm counts,D. immitis JYD-34 strain; [11],2.8
same,Mean worm counts,D. immitis JYD-34 strain; [12],0.5
same,Number of rats infected,"D. immitis JYD-34 strain; n = 4, one rat died pre-necropsy, oral 12 μg/kg day 28, necropsy day 120",*3
same,Number of rats infected,D. immitis JYD-34 strain; [13],4
same,Number of rats infected,D. immitis JYD-34 strain; [14],4
same,Number of rats infected,D. immitis JYD-34 strain; [15],1
same,% Efficacy,D. immitis JYD-34 strain; [9],0%
same,% Efficacy,D. immitis JYD-34 strain; [10],38%
same,% Efficacy,D. immitis JYD-34 strain; [11],28%
same,% Efficacy,D. immitis JYD-34 strain; [12],87%
"CC(=O)OCC(=O)[C@@]1(O)CC[C@H]2[C@@H]3CCC4=CC(=O)CC[C@]4(C)[C@H]3[C@@H](O)C[C@@]21C [hydrocortisone, hydrocortisone acetate]",mortality,[5],increased incidence of mortality
